The record followed here is patent US5525742A, “Azidophenylcyanoguanidines as photoaffinity probes” (The Upjohn Company, priority 1994, dated 1996).

“And” between values parts separate entries of the source, which are not always exact repeats. Equal values may be shown once.

Experiment [1] relates to 47 kilodalton protein. In words: Competition of photolabeling of the 47 kilodalton protein by nonradiolabeled compound. Type of experiment: binding, rat. The method, then: (§1) To biochemically identify the proteins that specifically bind the azidophenylcyanguanidines, Example 1a, Example 2a and Example 3a were prepared. A10 cells were grown to confluence in standard culture plates and then washed extensively with EBSS-H. After the final wash, the cells were placed in EBSS-H containing one of the radiolabeled forms of the azidophenylcyanguanidine to be tested. The A10 cells were equilibrated with the radiolabeled compound for 15 minutes at 37° C. The A10 cells were placed on ice and exposed for 1 minute to 600 μwatts/cm^2 of 254 nm UV light. After photolysis, the A10 cells were washed extensively with phosphate buffered saline. Membranes from the A10 cells were solubilized in cocktail of 0.2% Triton X100 detergent and protease inhibitors. The membranes were precipitated with 4 volumes of ice cold acetone for 30 minutes. The precipitate membrane proteins were collected by centrifugation at 20,000 rpm for 30 rain at 4° C. in a Beckman SW-28 rotor. After centrifugation the supernate was discarded and the pellet was dissolved 2% sodium dodecyl sulfate (SDS) as described by O'Farrell (J. Biol. Chem. 250:4007-4021, 1975). The radiolabeled proteins were resolved on an SDS polyacrylamide gel and identified by autoradiography after the gel was stained and dried. […]

Experiment [2] has as its target T1, KATP channel in A10 rat aortic smooth muscle cells (Rattus norvegicus, UniProt Q63563).
T1 construct: resting membrane potential of A10 rat aortic smooth muscle cells; host or cells: A10 rat aortic smooth muscle cells
In words: A10 membrane potential assay (DiBAC4(3) fluorescence), KATP channel opening. Type of experiment: cell-based. Particulars: for block of the hyperpolarizing effect by glyburide: 10 μM glyburide; for block of the hyperpolarizing effect by glyburide / EC50: A10 cells; for EC50: hyperpolarization of membrane potential; for potency relative to N-cyano-N'-(1,1-dimethylpropyl)-N''-3-pyridinylguanidine: A10 membrane potential assay. From the text:
(§2) Compounds that modulate KATP channel activity were examined by quantitating the effect of these compounds on the resting membrane potential of A10 rat aortic smooth muscle cells (American Type Culture Collection, number CRL-1476) using a fluorescent, potentialsensitive dye and an instrument to measure changes in cellular fluorescence. The dye of choice is bis(1,3-dibutylbarbituric acid)trimethine oxonol) DiBAC4 (3). Other voltage sensitive dyes could also be used. To optically measure changes in membrane potential, cells were subcultured onto coverglass chambers and grown to confluence. Immediately prior to analysis, cells were washed several times with Earle's balanced salt solution that was buffered to pH 7.4 with 20 mM Hepes (EBSS-H) and then placed in the buffer containing 5 μM DiBAC4 (3). Fluorescent imaging of membrane potential was carried out after the cells were equilibrated with 5 μM DiBAC4 (3) for at least 15 min at 37° C. and then placed in a 35° C. temperature-regulated mini-incubator that was mounted on the stage of laser based imaging cytometer (ACAS 570, Meridian Instruments). The ACAS 570 was configured to excite the cells at 488 nm using an argon ion laser. The fluorescent emission was monitored at 525 nm. To determine the effect of azidophenylcyanoguanidines on membrane potential, the ACAS 570 was configured to collect data once every 60 seconds for at least 25 minutes using the Kinetic program within the ACAS software. In all cases, 7 min. of baseline data were collected before the addition of the compound of interest. Changes in membrane potential were computed using a logistical model developed at Upjohn Laboratories. Control experiments established that solvents such as dimethylsulfoxide and ethanol had no effect at concentrations up to 0.8%.
In FIG. 1 the Y axis represents the change in membrane potential elicited by N-cyano-N'-(1,1-dimethylpropyl)-N''-3-pyridinylguanidine. A positive change represents a hyperpolarization of the membrane potential caused by an opening of a KATP channel. The X axis represents increasing concentrations of N-cyano-N'-(1,1-dimethylpropyl)-N''-3-pyridinylguanidine. […] The EC50 for N-cyano-N'-(1,1-dimethylpropyl)-N''-3-pyridinylguanidine in the A10 membrane potential assay is 30 nM. […] In FIG. 2 the Y axis represents change in membrane potential elicited by Example 1. A positive change represents a hyperpolarization of the membrane potential caused by an opening of a KATP channel. The X axis represents increasing concentrations of Example 1. Example 1 is structurally related to N-cyano-N'-(1,1-dimethylpropyl)-N''-3-pyridinylguanidine and has an EC50 of approximately 30 nM in the A10 assay. […] In FIG. 3 the Y axis represents the change in membrane potential elicited by Example 2. A positive change represents a hyperpolarization of the membrane potential caused by an opening of a KATP channel. The X axis represents increasing concentrations of Example 2. Example 2 is structurally related to N-cyano-N'-(1,1-dimethylpropyl)-N''-3-pyridinylguanidine and has an EC50 of approximately 30 nM in the A10 assay.
In FIG. 4A and 4B the Y axis represents a change in membrane potential. In these experiments, a change in the negative direction represents a hyperpolarization of the membrane potential caused by an opening of a KATP channel. In FIG. 4A and 4B the X axis represents time in minutes. Additional experiments indicate that 0.3 and 1.0 μM Example 3 also have no effect on the membrane potential of A10 cells (data not shown). […] Thus, within the azidophenylcyanoguanidine chemical series there are compounds that can be used to identify the cellular components required to open and close KATP close channels.

Experiment [3] relates to calcium-activated potassium channel. Put plainly: Responsiveness of photoinactivated A10 cells to agents that open the calcium-activated potassium channel. The class given is cell-based, rat. The settings on record: maximum concentration and UV light.
For experiment [4], the system named is KATP channel in A10 cells. Put plainly: Photoinactivation of KATP channels in A10 cells (UV pretreatment, then opener challenge). Type of experiment: cell-based, rat. The settings on record: for responsiveness to N-cyano-N'-(1,1-dimethylpropyl)-N''-3-pyridinylguanidine challenge after pretreatment and UV light: UV 254 nm, 1 min, challenge 1 μM, FIG. 5; for photoinactivation of the A10 KATP channel: compound and UV light.
Source text: as §2
Photoinactivation of KATP channels in A10 cells was carried out on cells grown on coverglass chambers. A10 cells were grown to confluence and washed 3 times with EBSS-H. The A10 cells were then equilibrated for 15 min at 37° C. with 100 nM to 30 μM of the azidophenyl-cyanoguanidines. The A10 cells were exposed to 600 μwatts/cm^2 of 254 nm light for 1 min to photoactivate these azidophenyl-cyanoguanidines. After photolysis, the A10 cells were extensively washed with EBSS-H and finally placed in EBSS-H containing 5 μM DiBAC4 (3). The pretreated cells were then challenged with 1 μM N-cyano-N'-(1,1-dimethylpropyl)-N.increment.-3-pyridinylguanidine and changes in membrane potential were measured as described in Section I, above, ASSAY OF KATP CHANNEL MODULATORS. If the KATP channels in A10 cells were covalently photoinactivated by the azidophenyl-cyanoguanidines, then the cells would be unresponsive to the subsequent challenge of KATP openers such as N-cyano-N'-(1,1-dimethylpropyl)-N''-3-pyridinylguanidine. […]

Experiment [5] relates to cyanoguanidine binding proteins. In words: Photolabeling of cyanoguanidine binding proteins in A10 cells (SDS gel, autoradiography). The arrangement: species or system rat. Particulars: for apparent molecular weight of the most prominent radiolabeled protein / number of radiolabeled proteins / molecular weight of radiolabeled protein: A10 membrane extracts, UV light. Here is the method: (§3) To biochemically identify the proteins that specifically bind the azidophenylcyanguanidines, Example 1a, Example 2a and Example 3a were prepared. A10 cells were grown to confluence in standard culture plates and then washed extensively with EBSS-H. After the final wash, the cells were placed in EBSS-H containing one of the radiolabeled forms of the azidophenylcyanguanidine to be tested. The A10 cells were equilibrated with the radiolabeled compound for 15 minutes at 37° C. The A10 cells were placed on ice and exposed for 1 minute to 600 μwatts/cm^2 of 254 nm UV light. After photolysis, the A10 cells were washed extensively with phosphate buffered saline. Membranes from the A10 cells were solubilized in cocktail of 0.2% Triton X100 detergent and protease inhibitors. The membranes were precipitated with 4 volumes of ice cold acetone for 30 minutes. The precipitate membrane proteins were collected by centrifugation at 20,000 rpm for 30 rain at 4° C. in a Beckman SW-28 rotor. After centrifugation the supernate was discarded and the pellet was dissolved 2% sodium dodecyl sulfate (SDS) as described by O'Farrell (J. Biol. Chem. 250:4007-4021, 1975). The radiolabeled proteins were resolved on an SDS polyacrylamide gel and identified by autoradiography after the gel was stained and dried.

For experiment [6], the system named is 56 kilodalton protein. Put plainly: Competition of photolabeling of the 56 kilodalton protein by nonradiolabeled compound. The settings on record: nonradiolabeled Example 2, 1 nM to 30 uM. Type of experiment: binding, rat. Here is the method: as §1
In experiment [7] the target is T1, KATP channel in A10 rat aortic smooth muscle cells. Put plainly: Reversal/block of N-cyano-N'-(1,1-dimethylpropyl)-N''-3-pyridinylguanidine-dependent KATP channel opening in A10 cells (membrane potential). The class given is cell-based.
Source text: as §2
In FIG. 4A and 4B the Y axis represents a change in membrane potential. In these experiments, a change in the negative direction represents a hyperpolarization of the membrane potential caused by an opening of a KATP channel. In FIG. 4A and 4B the X axis represents time in minutes. […]

Experiment [8] deals with 37 kilodalton protein. Put plainly: Competition of photolabeling of the 37 kilodalton protein by nonradiolabeled compound. Type of experiment: binding, rat. The settings on record: nonradiolabeled Example 3, 1 nM to 30 uM. Here is the method:
as §3
(§4) There was also a 27 kilodalton protein that was radiolabeled by Example 3a and UV light.

Experiment [9] has as its system 27 kilodalton protein. In words: Competition of photolabeling of the 27 kilodalton protein by nonradiolabeled compound. The class given is binding, rat. Particulars: nonradiolabeled Example 3, 1 nM to 30 uM. Here is the method: as §3, §4

T1 sequence (Q63563 1-1545 isoform Q63563-2): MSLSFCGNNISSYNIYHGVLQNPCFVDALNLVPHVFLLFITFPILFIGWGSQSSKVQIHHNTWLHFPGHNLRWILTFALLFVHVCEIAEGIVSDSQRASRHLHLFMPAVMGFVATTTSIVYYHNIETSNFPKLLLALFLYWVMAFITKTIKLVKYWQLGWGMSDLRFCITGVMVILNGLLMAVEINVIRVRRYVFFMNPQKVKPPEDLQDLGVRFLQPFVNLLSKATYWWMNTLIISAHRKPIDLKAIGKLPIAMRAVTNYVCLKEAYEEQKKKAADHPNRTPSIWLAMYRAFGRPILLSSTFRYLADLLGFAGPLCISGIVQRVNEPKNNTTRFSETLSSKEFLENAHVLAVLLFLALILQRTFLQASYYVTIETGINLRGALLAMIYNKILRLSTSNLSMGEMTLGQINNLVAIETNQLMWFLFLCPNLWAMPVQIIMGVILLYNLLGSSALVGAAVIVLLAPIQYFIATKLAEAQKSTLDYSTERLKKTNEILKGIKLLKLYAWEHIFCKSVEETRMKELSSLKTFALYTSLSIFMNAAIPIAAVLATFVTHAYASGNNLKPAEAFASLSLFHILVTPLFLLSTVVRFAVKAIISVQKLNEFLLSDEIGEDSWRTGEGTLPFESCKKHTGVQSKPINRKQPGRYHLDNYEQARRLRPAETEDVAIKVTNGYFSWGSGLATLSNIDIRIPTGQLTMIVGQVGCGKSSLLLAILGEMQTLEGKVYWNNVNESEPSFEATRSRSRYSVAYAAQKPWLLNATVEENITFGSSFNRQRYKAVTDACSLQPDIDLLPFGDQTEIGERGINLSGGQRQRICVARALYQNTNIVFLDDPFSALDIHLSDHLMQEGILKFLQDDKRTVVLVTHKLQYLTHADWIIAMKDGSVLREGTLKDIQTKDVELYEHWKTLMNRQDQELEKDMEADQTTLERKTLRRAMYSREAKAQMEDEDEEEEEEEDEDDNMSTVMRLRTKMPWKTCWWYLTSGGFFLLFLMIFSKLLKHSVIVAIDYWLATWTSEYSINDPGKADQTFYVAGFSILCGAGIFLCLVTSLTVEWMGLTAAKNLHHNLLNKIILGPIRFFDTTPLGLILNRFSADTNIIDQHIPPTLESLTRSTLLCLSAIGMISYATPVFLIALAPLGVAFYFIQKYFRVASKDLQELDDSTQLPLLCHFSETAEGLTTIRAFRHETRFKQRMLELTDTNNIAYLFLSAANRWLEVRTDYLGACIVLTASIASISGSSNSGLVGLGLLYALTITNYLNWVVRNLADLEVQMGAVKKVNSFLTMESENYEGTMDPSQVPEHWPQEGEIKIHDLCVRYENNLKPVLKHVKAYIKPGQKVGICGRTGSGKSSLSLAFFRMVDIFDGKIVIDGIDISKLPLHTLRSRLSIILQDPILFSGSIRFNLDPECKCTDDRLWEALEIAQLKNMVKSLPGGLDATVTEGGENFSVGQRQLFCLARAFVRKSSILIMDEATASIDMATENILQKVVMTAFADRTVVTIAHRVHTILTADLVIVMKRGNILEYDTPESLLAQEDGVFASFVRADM
T1 sequence (Q63664 whole entry partner): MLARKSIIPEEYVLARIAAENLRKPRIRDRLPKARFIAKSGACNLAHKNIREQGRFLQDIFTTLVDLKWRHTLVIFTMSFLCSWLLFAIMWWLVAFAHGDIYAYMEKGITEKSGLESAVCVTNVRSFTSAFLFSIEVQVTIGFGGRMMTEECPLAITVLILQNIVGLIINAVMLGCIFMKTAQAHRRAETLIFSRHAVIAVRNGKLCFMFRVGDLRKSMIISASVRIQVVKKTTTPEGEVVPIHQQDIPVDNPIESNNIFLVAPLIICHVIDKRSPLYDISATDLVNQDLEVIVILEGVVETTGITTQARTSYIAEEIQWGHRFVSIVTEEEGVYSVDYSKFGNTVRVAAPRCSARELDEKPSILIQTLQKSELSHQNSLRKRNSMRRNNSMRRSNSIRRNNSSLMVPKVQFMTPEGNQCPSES

With `CCC(C)(C)N=C(NC#N)Nc1cc(Cl)cc(N=[N+]=[N-])c1` [Example 1, N-(3-azido-5-chlorophenyl)-N'-cyano-N"-(1,1-dimethylpropyl)guanidine], the “inhibition of radiolabeling of the 47 kilodalton protein by Example 1a” value in experiment [1] (nonradiolabeled Example 1, 30 nM to 30 uM) is “specifically inhibited”. Moreover, the “block of the hyperpolarizing effect by glyburide” value (from here on “block … by glyburide”) in experiment [2] (data not shown) is “blocked”. Further, in experiment [2], the concentration giving a half-maximal response (EC50) is about 30 nM and the “potency relative to N-cyano-N'-(1,1-dimethylpropyl)-N''-3-pyridinylguanidine” value is given as “as potent as”. In addition, in experiment [3], the “responsiveness to agents that open the calcium-activated potassium channel after pretreatment” value is given as “remained responsive”. In experiment [4], the “responsiveness to N-cyano-N'-(1,1-dimethylpropyl)-N''-3-pyridinylguanidine challenge after pretreatment and UV light” value was “concentration dependent loss”; the “photoinactivation of the A10 KATP channel” value is given as “specifically photoinactivated the A10 KATP channel”.
Turning to `[3H]C([3H])([3H])C([3H])([3H])C(C)(C)NC(=NC#N)Nc1cc(Cl)cc(N=[N+]=[N-])c1` [Example 1a, N-(3-azido-5-chlorophenyl)-N'-cyano-N''-(1,1-dimethyl-2,2,3,3,3-T5-propyl)guanidine], in [5], the “apparent molecular weight of the most prominent radiolabeled protein” value is 47 kilodaltons and the “number of radiolabeled proteins” value is “several radiolabeled proteins”. Also, the “labeling in the absence of UV light” value in [5] (no UV light, control experiments) was “no proteins were labeled”.
For `CCC(C)(C)N=C(NC#N)Nc1cc(I)cc(N=[N+]=[N-])c1` [Example 2, N-(3-azido-5-iodophenyl)-N'-cyano-N''-(1,1-dimethylpropyl)guanidine], in [1] (nonradiolabeled Example 2, 1 nM to 30 uM), the “inhibition of radiolabeling of the 47 kilodalton protein by Example 2a” value is “specifically inhibited”. Besides, the “block … by glyburide” value in experiment [2] (data not shown) is on record as “blocked”. In experiment [2], the EC50 is about 30 nM and the “potency relative to N-cyano-N'-(1,1-dimethylpropyl)-N''-3-pyridinylguanidine” value was “as potent as”. For the same compound, the “responsiveness to agents that open the calcium-activated potassium channel after pretreatment” value in experiment [3] is given as “remained responsive”. Also, the “inhibition of radiolabeling of the 56 kilodalton protein by Example 2a” value in experiment [6] is reported as “specifically inhibited”. Besides, the “photoinactivation of the A10 KATP channel” value in [4] is “specifically photoinactivated the A10 KATP channel”.
In the case of `CCC(C)(C)NC(=NC#N)Nc1cc([125I])cc(N=[N+]=[N-])c1` [Example 2a, N-(3-azido-5-iodo-^125 I-phenyl)-N'-cyano-N''-(1,1-dimethylpropyl) guanidine], the “molecular weight of radiolabeled protein” value in experiment [5] is 47 kilodalton and 56 kilodalton.
As for `N#CNC(=NC1(c2cccc(F)c2)CCC1)Nc1cc(I)cc(N=[N+]=[N-])c1` [Example 3, N-(3-azido-5-iodophenyl)-N'-cyano-N"-(1-(3-fluorophenyl)cyclobutyl)guanidine], the “reversal of the effect of N-cyano-N'-(1,1-dimethylpropyl)-N''-3-pyridinylguanidine” value in experiment [7] (10 μM, in continuing presence of 1 μM opener, FIG. 4B) is reported as “reverses the effect”. The “block of opener-dependent opening of KATP channels” value in experiment [7] (additional experiments, concentration dependence) is “in a concentration dependent manner”. The “mode of action on the KATP channel in A10 cells” value in [7] (conclusion from the data) is recorded as “blocker of the KATP channel”. The “effect on the membrane potential of A10 cells” value in [2] (0.3 μM, data not shown) is reported as “no effect”; in experiment [2] (1.0 μM, data not shown) it was “no effect”; in experiment [2] (10 μM, FIG. 4A) it was “no effect”. Further, in experiment [8], the “inhibition of radiolabeling of the 37 kilodalton protein by Example 3a” value is reported as “specifically inhibited”. In addition, the “inhibition of radiolabeling of the 27 kilodalton protein by Example 3a” value in experiment [9] is “specifically inhibited”.
In the case of `N#CN=C(Nc1cc([125I])cc(N=[N+]=[N-])c1)NC1(c2cccc(F)c2)CCC1` [Example 3a, N-(3-azido-5-iodo-125I-phenyl)-N'-cyano-N''-[1-(3-fluorophenyl)cyclobutyl]guanidine], in [5], the “apparent molecular weight of the most prominent radiolabeled protein” value is on record as 37 kilodaltons, the “molecular weight of radiolabeled protein” value stood at 27 kilodalton and the “number of radiolabeled proteins” value was “several radiolabeled proteins”.
Consider `CCC(C)(C)NC(=Nc1cccnc1)NC#N` [N-cyano-N'-(1,1-dimethylpropyl)-N''-3-pyridinylguanidine, reference compound], for which the “opening of the A10 KATP channel with hyperpolarization” value in experiment [2] (1 μM, FIG. 4B) is “opens the A10 KATP channel”. The “block … by glyburide” value in experiment [2] (data not shown) was “blocked”. In addition, the response in [2] was half-maximal at 30 nM (EC50). In [4], the “responsiveness to N-cyano-N'-(1,1-dimethylpropyl)-N''-3-pyridinylguanidine challenge after pretreatment and UV light” value is “remain nearly completely responsive”.
